Experimental data published in ChEMBL document CHEMBL2390942, “Novel 3,5-bis(arylidene)-4-piperidone dimers: potent cytotoxins against colon cancer cells” (Eur J Med Chem, 2013).

system: HT-29; test: Cytotoxicity against human HT-29 cells after 48 hrs by sulforhodamine B assay; type: functional, cell-based; conditions: HT-29, 48 h

Point of comparison: `COc1ccc(/C=C2\CN(C(=O)C(=O)N3C/C(=C\c4ccc(OC)c(OC)c4)C(=O)/C(=C/c4ccc(OC)c(OC)c4)C3)C/C(=C\c3ccc(OC)c(OC)c3)C2=O)cc1OC`, IC50 568 nM. Against it:
- COc1cc(/C=C/C(=O)CC(=O)/C=C/c2ccc(O)c(OC)c2)ccc1O [CURCUMIN] — 23-fold higher, 13200 nM
- CN(C)c1ccc(/C=C2/CN(C(=O)CC(=O)N3C/C(=C\c4ccc(N(C)C)cc4)C(=O)/C(=C/c4ccc(N(C)C)cc4)C3)C/C(=C\c3ccc(N(C)C)cc3)C2=O)cc1 — higher, > 25000 nM
- O=C1/C(=C/c2ccc(Cl)cc2)CN(C(=O)C(=O)N2C/C(=C\c3ccc(Cl)cc3)C(=O)/C(=C/c3ccc(Cl)cc3)C2)C/C1=C\c1ccc(Cl)cc1 — within 1.5-fold, 780 nM
- O=C1/C(=C\c2ccc(Cl)cc2)CN(C(=O)CC(=O)N2C/C(=C\c3ccc(Cl)cc3)C(=O)/C(=C/c3ccc(Cl)cc3)C2)C/C1=C\c1ccc(Cl)cc1 — 6.3-fold lower, 90 nM
- O=C1/C(=C\c2ccccc2)CN(C(=O)CC(=O)N2C/C(=C\c3ccccc3)C(=O)/C(=C/c3ccccc3)C2)C/C1=C\c1ccccc1 — 190-fold lower, 3 nM
- CN(C)c1ccc(/C=C2\CN(C(=O)C(=O)N3C/C(=C\c4ccc(N(C)C)cc4)C(=O)/C(=C/c4ccc(N(C)C)cc4)C3)C/C(=C\c3ccc(N(C)C)cc3)C2=O)cc1 — 33-fold higher, 18600 nM
- O=C1/C(=C\c2ccc(Cl)c(Cl)c2)CN(C(=O)CC(=O)N2C/C(=C\c3ccc(Cl)c(Cl)c3)C(=O)/C(=C/c3ccc(Cl)c(Cl)c3)C2)C/C1=C\c1ccc(Cl)c(Cl)c1 — 11-fold higher, 6050 nM
- O=C1/C(=C\c2ccccc2)CN(CCCN2C/C(=C\c3ccccc3)C(=O)/C(=C/c3ccccc3)C2)C/C1=C\c1ccccc1 — 3.8-fold higher, 2150 nM
- Cc1ccc(/C=C2\CN(C(=O)C(=O)N3C/C(=C\c4ccc(C)cc4)C(=O)/C(=C/c4ccc(C)cc4)C3)C/C(=C\c3ccc(C)cc3)C2=O)cc1 — 4.4-fold lower, 129 nM

system: HCT-116; test: Cytotoxicity against human HCT116 cells after 48 hrs by sulforhodamine B assay; type: functional, cell-based; conditions: HCT-116, 48 h

Point of comparison: `O=C1/C(=C\c2ccc(Cl)cc2)CN(C(=O)CC(=O)N2C/C(=C\c3ccc(Cl)cc3)C(=O)/C(=C/c3ccc(Cl)cc3)C2)C/C1=C\c1ccc(Cl)cc1`, IC50 50 nM. Against it:
- COc1ccc(/C=C2\CN(C(=O)C(=O)N3C/C(=C\c4ccc(OC)c(OC)c4)C(=O)/C(=C/c4ccc(OC)c(OC)c4)C3)C/C(=C\c3ccc(OC)c(OC)c3)C2=O)cc1OC — 1.7-fold lower, 30 nM
- COc1cc(/C=C/C(=O)CC(=O)/C=C/c2ccc(O)c(OC)c2)ccc1O [CURCUMIN] — 230-fold higher, 11500 nM
- CN(C)c1ccc(/C=C2/CN(C(=O)CC(=O)N3C/C(=C\c4ccc(N(C)C)cc4)C(=O)/C(=C/c4ccc(N(C)C)cc4)C3)C/C(=C\c3ccc(N(C)C)cc3)C2=O)cc1 — higher, > 25000 nM
- O=C1/C(=C/c2ccc(Cl)cc2)CN(C(=O)C(=O)N2C/C(=C\c3ccc(Cl)cc3)C(=O)/C(=C/c3ccc(Cl)cc3)C2)C/C1=C\c1ccc(Cl)cc1 — 1.7-fold lower, 30 nM
- O=C1/C(=C\c2ccccc2)CN(C(=O)CC(=O)N2C/C(=C\c3ccccc3)C(=O)/C(=C/c3ccccc3)C2)C/C1=C\c1ccccc1 — 2.5-fold lower, 20 nM
- CN(C)c1ccc(/C=C2\CN(C(=O)C(=O)N3C/C(=C\c4ccc(N(C)C)cc4)C(=O)/C(=C/c4ccc(N(C)C)cc4)C3)C/C(=C\c3ccc(N(C)C)cc3)C2=O)cc1 — 550-fold higher, 27400 nM
- O=C1/C(=C\c2ccc(Cl)c(Cl)c2)CN(C(=O)CC(=O)N2C/C(=C\c3ccc(Cl)c(Cl)c3)C(=O)/C(=C/c3ccc(Cl)c(Cl)c3)C2)C/C1=C\c1ccc(Cl)c(Cl)c1 — 530-fold higher, 26700 nM
- O=C1/C(=C\c2ccccc2)CN(CCCN2C/C(=C\c3ccccc3)C(=O)/C(=C/c3ccccc3)C2)C/C1=C\c1ccccc1 — 14-fold higher, 680 nM
- Cc1ccc(/C=C2\CN(C(=O)C(=O)N3C/C(=C\c4ccc(C)cc4)C(=O)/C(=C/c4ccc(C)cc4)C3)C/C(=C\c3ccc(C)cc3)C2=O)cc1 — 1.8-fold higher, 90 nM

system: HCT-116; test: Ratio of 5-fluorouracil IC50 to compound IC50 for human HCT116 cells after 48 hrs by sulforhodamine B assay; type: functional; conditions: not given

Point of comparison: `COc1ccc(/C=C2\CN(C(=O)C(=O)N3C/C(=C\c4ccc(OC)c(OC)c4)C(=O)/C(=C/c4ccc(OC)c(OC)c4)C3)C/C(=C\c3ccc(OC)c(OC)c3)C2=O)cc1OC`, “Ratio IC50” value 151. Against it:
- COc1cc(/C=C/C(=O)CC(=O)/C=C/c2ccc(O)c(OC)c2)ccc1O [CURCUMIN] — lower, 0.39
- O=C1/C(=C/c2ccc(Cl)cc2)CN(C(=O)C(=O)N2C/C(=C\c3ccc(Cl)cc3)C(=O)/C(=C/c3ccc(Cl)cc3)C2)C/C1=C\c1ccc(Cl)cc1 — the same, 151
- O=C1/C(=C\c2ccc(Cl)cc2)CN(C(=O)CC(=O)N2C/C(=C\c3ccc(Cl)cc3)C(=O)/C(=C/c3ccc(Cl)cc3)C2)C/C1=C\c1ccc(Cl)cc1 — lower, 90
- O=C1/C(=C\c2ccccc2)CN(C(=O)CC(=O)N2C/C(=C\c3ccccc3)C(=O)/C(=C/c3ccccc3)C2)C/C1=C\c1ccccc1 — higher, 226
- CN(C)c1ccc(/C=C2\CN(C(=O)C(=O)N3C/C(=C\c4ccc(N(C)C)cc4)C(=O)/C(=C/c4ccc(N(C)C)cc4)C3)C/C(=C\c3ccc(N(C)C)cc3)C2=O)cc1 — lower, 0.17
- O=C1/C(=C\c2ccc(Cl)c(Cl)c2)CN(C(=O)CC(=O)N2C/C(=C\c3ccc(Cl)c(Cl)c3)C(=O)/C(=C/c3ccc(Cl)c(Cl)c3)C2)C/C1=C\c1ccc(Cl)c(Cl)c1 — lower, 0.17
- O=C1/C(=C\c2ccccc2)CN(CCCN2C/C(=C\c3ccccc3)C(=O)/C(=C/c3ccccc3)C2)C/C1=C\c1ccccc1 — lower, 7
- Cc1ccc(/C=C2\CN(C(=O)C(=O)N3C/C(=C\c4ccc(C)cc4)C(=O)/C(=C/c4ccc(C)cc4)C3)C/C(=C\c3ccc(C)cc3)C2=O)cc1 — lower, 50

For `CN(C)c1ccc(/C=C2/CN(C(=O)CC(=O)N3C/C(=C\c4ccc(N(C)C)cc4)C(=O)/C(=C/c4ccc(N(C)C)cc4)C3)C/C(=C\c3ccc(N(C)C)cc3)C2=O)cc1`, the “Ratio IC50” value was under 1.

system: HT-29; test: Ratio of 5-fluorouracil IC50 to compound IC50 for human HT-29 cells after 48 hrs by sulforhodamine B assay; type: functional; conditions: not given

Point of comparison: `O=C1/C(=C\c2ccc(Cl)cc2)CN(C(=O)CC(=O)N2C/C(=C\c3ccc(Cl)cc3)C(=O)/C(=C/c3ccc(Cl)cc3)C2)C/C1=C\c1ccc(Cl)cc1`, “Ratio IC50” value 71. Against it:
- COc1ccc(/C=C2\CN(C(=O)C(=O)N3C/C(=C\c4ccc(OC)c(OC)c4)C(=O)/C(=C/c4ccc(OC)c(OC)c4)C3)C/C(=C\c3ccc(OC)c(OC)c3)C2=O)cc1OC — lower, 11
- COc1cc(/C=C/C(=O)CC(=O)/C=C/c2ccc(O)c(OC)c2)ccc1O [CURCUMIN] — lower, 0.48
- O=C1/C(=C/c2ccc(Cl)cc2)CN(C(=O)C(=O)N2C/C(=C\c3ccc(Cl)cc3)C(=O)/C(=C/c3ccc(Cl)cc3)C2)C/C1=C\c1ccc(Cl)cc1 — lower, 8
- O=C1/C(=C\c2ccccc2)CN(C(=O)CC(=O)N2C/C(=C\c3ccccc3)C(=O)/C(=C/c3ccccc3)C2)C/C1=C\c1ccccc1 — higher, 2117
- CN(C)c1ccc(/C=C2\CN(C(=O)C(=O)N3C/C(=C\c4ccc(N(C)C)cc4)C(=O)/C(=C/c4ccc(N(C)C)cc4)C3)C/C(=C\c3ccc(N(C)C)cc3)C2=O)cc1 — lower, 0.34
- O=C1/C(=C\c2ccc(Cl)c(Cl)c2)CN(C(=O)CC(=O)N2C/C(=C\c3ccc(Cl)c(Cl)c3)C(=O)/C(=C/c3ccc(Cl)c(Cl)c3)C2)C/C1=C\c1ccc(Cl)c(Cl)c1 — lower, 1.1
- O=C1/C(=C\c2ccccc2)CN(CCCN2C/C(=C\c3ccccc3)C(=O)/C(=C/c3ccccc3)C2)C/C1=C\c1ccccc1 — lower, 3
- Cc1ccc(/C=C2\CN(C(=O)C(=O)N3C/C(=C\c4ccc(C)cc4)C(=O)/C(=C/c4ccc(C)cc4)C3)C/C(=C\c3ccc(C)cc3)C2=O)cc1 — lower, 49

`CN(C)c1ccc(/C=C2/CN(C(=O)CC(=O)N3C/C(=C\c4ccc(N(C)C)cc4)C(=O)/C(=C/c4ccc(N(C)C)cc4)C3)C/C(=C\c3ccc(N(C)C)cc3)C2=O)cc1` was tested, and the “Ratio IC50” value was under 1.

system: Mus musculus; test: Reduction in hepatic glutathione levels in ip dosed mouse relative to control; type: functional; set-up: scale not given: the % may be the effect or the level left; conditions: not given

Point of comparison: `O=C1/C(=C/c2ccccc2)CNC/C1=C\c1ccccc1`, Activity 19%. Against it:
- O=C(O)/C=C/C(=O)N1C/C(=C\c2ccccc2)C(=O)/C(=C/c2ccccc2)C1 — higher, 29%
